“Also recorded” adds a separate entry of the source. Read-outs that look alike come from different tables or passages of the source.
Experiments:
[1] = tested on: Nras(G12D)/MLL-AF9 leukemic cells; assay: Viability of Nras(G12D)/MLL-AF9 leukemic cells cultured with AOA or myriocin; assay type: cell-based, mouse; details: day 3 (FIG. 33A, 34A)
[2] = tested on: human leukemic cells; assay: Viability of human leukemic cell lines cultured with AOA; assay type: cell-based; details: human Molm13, Thp1, ml2, Nomo1, Semk2, Kasumi leukemic cells, day 3 (FIG. 34B-34G)
[3] = tested on: Nras(G12D)/MLL-AF9 leukemia; assay: AML mouse model: sub-lethally irradiated mice transplanted with Nras(G12D)/MLL-AF9 cells, compound treatment; assay type: in vivo; details: for animal survival / leukemia disease progression (luciferase signal): daily dosing vs PBS control, isoniazid 90 mg/kg intraperitoneally
Source text: PDXK shRNAs were cloned into a doxycycline inducible H2 vector (D9891-25G, Sigma-Aldrich, St. Louis, Mo.). Leukemic cells were infected with viruses encoding shRNAs targeting Renilla luciferase or PDXK, followed by either in vitro culture or transplantation. For in vitro culture experiments, doxycycline was supplemented into culture medium, and the percentage of GFP^+ cells was monitored. For in vivo AML mouse model experiments, the dietary feed of the mice was supplemented with doxycycline, and luciferase expression levels were monitored. For in vivo drug efficacy experiments, leukemic cells were transplanted into sub-lethally irradiated mice. Control PBS or isoniazid (90 mg/kg) was injected 6 hours after transplant and then daily into the transplant containing mice, and luciferase expression levels were monitored. High-performance liquid chromatography-mass spectrometry (HPLC-MS) was performed as previously described in A. M. Intlekofer et al., Nat Chem Biol 13, 494-500 (2017).
For isoniazid injection experiment, Nras(G12D)/MLL-AF9 leukemic cells were collected and resuspended in PBS at a concentration of 5 million/ml. 5-6 weeks old B6-LY5 mice (Charles River Labs, Wilmington Mass.) were sublethally irradiated (450 cGy) and transplanted with 1 million leukemic cells through tail vein injection. PBS or 90 mg/kg isoniazid were intraperitoneally injected daily.
The leukemia disease progress was monitored by in vivo bioluminescent imaging using IVIS Lumina image system (Xenogen) every 3 days. Before imaging, all mice were anesthetized with 2% isoflurane, and anesthesia was also maintained during the image acquisition inside Xenogen dark chamber. 300 mg/kg D-Luciferin (Gold Biotechnology Olivette, Mo.) in PBS at 15 mg/ml was intraperitoneally injected ˜12 minutes before image capturing. The bioluminescence was acquired and quantitatively analyzed by the Living Image software.

[4] = molecular target: T1, PDXK (Homo sapiens, UniProt O00764); assay: Intracellular PLP levels (PDXK inhibition) in human Molm13 leukemic cells; assay type: cell-based; details: human Molm13 leukemic cells (FIG. 17B, 18B)
T1 construct: endogenous in cells; host or cells: human Molm13 (MOLM13) AML cells
T1 sequence (O00764 1-312): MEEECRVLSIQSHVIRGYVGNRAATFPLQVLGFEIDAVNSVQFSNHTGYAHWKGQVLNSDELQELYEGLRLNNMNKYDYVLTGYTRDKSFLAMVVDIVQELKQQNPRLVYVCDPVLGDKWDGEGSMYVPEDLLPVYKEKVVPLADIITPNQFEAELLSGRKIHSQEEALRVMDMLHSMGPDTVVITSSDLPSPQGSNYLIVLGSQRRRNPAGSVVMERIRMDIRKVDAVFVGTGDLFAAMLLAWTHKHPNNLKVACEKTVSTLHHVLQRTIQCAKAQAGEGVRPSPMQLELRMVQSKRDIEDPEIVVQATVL
Method: (§1) LC-MS grade solvents were purchased from Thermo Fisher Scientific (Waltham, Mass.), metabolite standards were purchased from Sigma (St. Louis, Mo.) unless stated otherwise. Nras(G12D)/MLL-AF9 cells infected with viruses encoding Pdxk shRNAs were harvested after 5 days of doxycycline induction. Human MOLM13 cells infected with viruses encoding Pdxk sgRNAs were harvested at day 11 post infection. Nras(G12D)/MLL-AF9 cells or MOLM13 cells were treated with indicated concentrations of isoniazid and harvested after 5 days treatment.
In each case, 2 million cells were collected by centrifugation at 440×g, media was aspirated and 1004 of ice-cold 10% trichloroacetic acid with or without 100 ng/mL d3-pyridoxal (d3-PL), d3-pyridoxine (d3-PN), d3-pyridoxamine (d3-PM), d3-pyridoxal phosphate (d3-PLP) (IsoSciences LLC, Ambler Pa.) was added for metabolite extraction. For experiments involving isoniazid treatment, cells were washed once with PBS to remove residual drug and minimize post-lysis reactions between isoniazid and PLP, which was confirmed by monitoring the d3-PLP internal standard. After overnight incubation at −80° C., samples were vortexed and transferred to 1.7 mL conical eppendorf tubes and centrifuged at 21,000×g for 20 min at 4° C. The supernatant was transferred to autosampler vials for LC-MS analysis. Vitamin B species separation was performed using an Agilent 1290 infinity pump and XSelect HSS T3 column (150×2.1 mm, 3.5 μm; Waters Corporation, Milford Mass.). Mobile phase A was 0.1% heptaflurobutyric acid (HFBA, Thermo Fisher, Waltham Mass.) and 0.1% formic acid (FA, Thermo Fisher, Waltham Mass.) in water, mobile phase B was 0.1% HFBA and 0.1% FA in acetonitrile. The injection volume was 10 μL and LC gradient conditions were: 0 min: 0% B; 1 min: 0% B; 7 min: 25% B; 8 min: 25% B; 9 min: 100% B; 10.5 min: 100% B, with 4.5 min of re-equilibration time. MS detection was performed using an Agilent 6230 TOF accurate mass spectrometer with Dual JetStream source operating in positive ionization mode. MS parameters were: gas temp 250° C.; gas flow: 13 L/min; nebulizer pressure: 45 psig; sheath gas temp: 225° C.; sheath gas flow: 12 L/min; VCap: 3,500 V; Fragmentor: 175 V; Skimmer: 65 V; Octopole RF: 750 V. Active mass axis correction was performed using a second nebulizer and pyridine (80.049480) and roxithromycin (837.53185). Data was acquired from m/z 50-1700 at 1.5 spectra/sec. Accurate mass (±20 ppm) and retention time was confirmed relative to the pure standards. Data analysis was performed using MassHunter software (Agilent, Santa Clara Calif.).

[5] = tested on: human leukemic cells; assay: Proliferation / growth of human leukemic cell lines cultured with compound; assay type: cell-based; details: for growth of human AML cells in vitro: indicated leukemic cell lines (FIG. 17C, 18C)
Method: The average and STDEV of relative cell proliferation are shown.
(§2) Mouse AML cell lines, human AML cell lines, iMEF cell line and 3T3 cell line were infected with virus encoding Cas9 (Addgene 52962, Watertown Mass.) followed with blastcitidin selection to generate Cas9 cell lines. All viral sgRNA infection experiments were performed on Cas9 cell lines. All viral shRNA infection experiments were performed on cell lines carrying rtTA3. Mouse leukemic cell lines including Nras(G12D)/MLL-AF9, MLL-AF9, Nras(G12D)/IDH, Nras(G12D)/NPM1, and IDH/Flt3 were cultured in RPMI medium supplemented with 10% Fetal Bovine Serum (FBS), L-glutamine, penicillin streptomycin, recombinant mouse SCF, IL-3 and IL-6. Human leukemic cell lines MOLM13, M12, Semk2, THP1, and K562 were cultured in RPMI medium supplemented with 10% FBS, L-glutamine, penicillin, and streptomycin. Vitamin B6 depleted medium (VB6−) was prepared by customized pyridoxin (−) RPMI (Gibco, Gaithersburg, Md.) with 10% dialyzed FBS, L-glutamine, penicillin, and streptomycin. Pyridoxin hydrochloride (Sigma, St Louis Mo.) was added back to VB6(−) medium to make the VB6 (+) medium used for leukemia and MEF culture. Control or gene targeting sgRNAs or shRNAs were delivered by lentivirus. Spin infections were performed at 37° C. and 1500 RPM for 60 minutes. After spin infection, viral supernatants were substituted with leukemic cell culture medium. For compound treatment, isoniazid was added in culture medium at indicated concentrations.
For competition and cell proliferation experiments, mouse or human leukemic cells were infected with viruses encoding sgRNAs or shRNAs. Spin infections were performed at 37 degree and 1500 RPM for 60 minutes. After spin infection, viral supernatants were substituted with leukemic cell culture medium. GFP+ percentage or cell number was monitored during culture using guava flow cytometer. The absolute cell number was measured by using flow cytometry absolute count standard (Bangs Laboratories Inc., Fishers Ind.). The experimental results were analyzed by guavasoft software.

[6] = tested on: Nras(G12D)/MLL-AF9 leukemic cells; assay: Metabolite rescue of isoniazid proliferative block in Nras(G12D)/MLL-AF9 leukemic cells; assay type: cell-based, mouse; details: exogenous addition of metabolite with isoniazid, day 4 (FIG. 4D-4F)
Source text: The average and SEM of fold of cell proliferation are shown. “*” represents p<0.05 of one-way ANOVA test, “**” represents p<0.01 of one-way ANOVA test, “***” represents p<0.001 of one-way ANOVA test. […] The average and SEM of fold of cell proliferation are shown. “*” represents p<0.05 of one-way ANOVA test, “**” represents p<0.01 of one-way ANOVA test, “***” represents p<0.001 of one-way ANOVA test. […] The average and SEM of fold of cell proliferation are shown. “*” represents p<0.05 of one-way ANOVA test, “**” represents p<0.01 of one-way ANOVA test, “***” represents p<0.001 of one-way ANOVA test.

[7] = tested on: bone marrow HSPCs; assay: Proliferation of bone marrow HSPCs cultured with compound; assay type: cell-based, mouse
Source text: The average and STDEV of relative cell proliferation of 3 replicates are shown.
Bone marrow hematopoietic stem and progenitor cell isolation, culture, and compound treatment. For isolation of bone marrow cells, the bone marrow from the femur and tibia was flushed into ice cold PBS buffer. After red blood cell lysis with ammonium chloride (STEMCELL 07850, Vancouver Canada), the bone marrow cells were resuspended with PBS and filtered into a round bottom tube with cell strainer cap. The hematopoietic cells lineages were stained with biotin mouse lineage panel (BD Biosciences 559971, San Jose Calif.), then isolated by magnetic beads separation. For c-Kit positive cells, mouse hematopoietic cells were isolated from bone marrow using MACS CD117 isolation system. Purified bone marrow cells were cultured in RPMI medium supplemented with recombinant mouse SCF, IL-3, and IL-6. Control or Pdxk targeting sgRNAs or shRNAs were delivered by lentivirus. Spin infections were performed at 37 degree and 1500 RPM for 60 minutes. After spin infection, viral supernatants were substituted with leukemic cell culture medium. For compound treatment, isoniazid was added in culture at indicated concentrations.

[8] = tested on: mouse leukemic cells; assay: Proliferation of mouse leukemic cell lines cultured with compound; assay type: cell-based; details: mouse leukemic cell lines with different genetic drivers, day 6 (FIG. 1I)
Method: as §2, with “Pyridoxin hydrochloride (Sigma, St Louis Mo.) was added back to VB6(−) medium to make the VB6 (+) medium used for leukemia and MEF culture. Control or gene targeting sgRNAs or shRNAs were delivered by lentivirus. Spin infections were performed at 37° C. and 1500 RPM for 60 minutes. After spin infection, viral supernatants were substituted with leukemic cell culture medium. For compound treatment, isoniazid was added in culture medium at indicated concentrations.” left out
For competition and cell proliferation experiments, mouse or human leukemic cells were infected with viruses encoding sgRNAs or shRNAs. […] GFP+ percentage or cell number was monitored during culture using guava flow cytometer. The absolute cell number was measured by using flow cytometry absolute count standard (Bangs Laboratories Inc., Fishers Ind.). The experimental results were analyzed by guavasoft software.

[9] = tested on: PLP; assay: Intracellular PLP levels by HPLC-MS in Nras(G12D)/MLL-AF9 leukemic cells cultured with isoniazid; assay type: cell-based, mouse; details: day 5 of culture, HPLC-MS (FIG. 2E)
Method: The abundance of PLP was measured by high-performance liquid chromatography-mass spectrometry (HPLC-MS) and normalized to the level [^3D]-labeled PLP (internal control). The average and STDEV are shown. Western blot analysis was performed to measure the expression levels of PDXK protein.
as §1
In each case, 2 million cells were collected by centrifugation at 440×g, media was aspirated and 1004 of ice-cold 10% trichloroacetic acid with or without 100 ng/mL d3-pyridoxal (d3-PL), d3-pyridoxine (d3-PN), d3-pyridoxamine (d3-PM), d3-pyridoxal phosphate (d3-PLP) (IsoSciences LLC, Ambler Pa.) was added for metabolite extraction. For experiments involving isoniazid treatment, cells were washed once with PBS to remove residual drug and minimize post-lysis reactions between isoniazid and PLP, which was confirmed by monitoring the d3-PLP internal standard. […]

[10] = tested on: human HL60 (Human promyelocytic leukemia) cells; assay: Human HL60 cells cultured with myriocin; assay type: cell-based; details: day 4 of culture (FIG. 33B)

Question: NOCC(=O)O [AOA, aminooxyacetic acid] was tested. Which “viability of leukemic cells in vitro” value [1] did it give?
Answer: reduced the viability

Question: What about the “viability of leukemic cells in vitro” value [2] of the same molecule?
Answer: reduced the viability

Question: And the animal survival [3]?
Answer: extended survival

Question: And the “leukemia disease progression (luciferase signal)” value [3]?
Answer: significantly delayed leukemia disease maintenance

Question: Which PDXK inhibition [4] does the source give for CC[C@H](CO)Nc1nc(N(C)Cc2ccccc2)c2ncn(C(C)C)c2n1 [aftin-4] here?
Answer: can nhibit PDXK

Question: What about the “intracellular levels of PLP” value [4] of the same molecule?
Answer: reduced intracellular levels of PLP

Question: And the “growth of human AML cells in vitro” value [5]?
Answer: can suppress the growth; also recorded: inhibited the growth

Question: With NC(=O)C[C@H](N)C(=O)O [asparagine] as the molecule, how does the “rescue of proliferative block produced by isoniazid” value (from here on “rescue”) [6] read?
Answer: partially rescued

Question: For COCc1c(CO)cnc(C)c1O [gingkotoxin], which PDXK inhibition [4] is on record?
Answer: can inhibit PDXK

Question: What about the “intracellular levels of PLP” value [4] of the same molecule?
Answer: reduced intracellular levels of PLP

Question: And the “intracellular levels of PLP” value ([4]; listed as ginkgotoxin)?
Answer: reduce intracellular levels of PLP

Question: What about the “growth of human AML cells in vitro” value [5] of the same molecule?
Answer: suppressed tumor growth

Question: And the “growth of human AML cells in vitro” value ([5]; listed as ginkgotoxin)?
Answer: can suppress the growth

Question: And the animal survival [3]?
Answer: improved survival

Question: What about the “leukemia disease progression (luciferase signal)” value [3] of the same molecule?
Answer: slowed down disease progression

Question: And the “proliferation of bone marrow lineage negative HSPCs” value ([7]; bone marrow lineage negative HSPCs, day 6 (FIG. 26A-26B))?
Answer: little effect

Question: Which results are given for NNC(=O)c1ccncc1 [isoniazid]?
Answer: proliferation of human leukemic cells ([5]; human leukemic cell lines, day 6 of culture (FIG. 7G, 25A-25C)): blocked proliferation; proliferation of mouse leukemic cells [8]: blocked proliferation; animal survival [3]: produced a survival advantage; leukemia disease progression (luciferase signal) [3]: delayed disease progression; reduction of PLP in plasma and bone marrow cells ([3]; isoniazid 90 mg/kg intraperitoneally daily, day 12 post transplant, HPLC-MS (FIG. 13B)): ~25%; proliferation of bone marrow HSPCs [7]: only a subtle reduction; proliferation of bone marrow lineage negative HSPCs [7]: little effect; intracellular PLP levels [9]: reduced intracellular PLP levels

Question: With CCCCCCC(=O)CCCCCC/C=C/C[C@@H](O)[C@H](O)[C@@](N)(CO)C(=O)O [myriocin] as the molecule, how does the “sensitivity of HL60 cells to treatment” value [10] read?
Answer: less sensitive

Question: What about the “viability of leukemic cells in vitro” value [1] of the same molecule?
Answer: reduced the viability

Question: NCCCCN [putrescine] was tested. Which “rescue” value [6] did it give?
Answer: partially rescued

Question: How did the “rescue” value [6] turn out when O=c1ccn([C@@H]2O[C@H](CO)[C@@H](O)[C@H]2O)c(=O)[nH]1 [uridine] was run?
Answer: partially rescued
